Assay results from article PMC9046087, “Structural basis of tethered agonism of the adhesion GPCRs ADGRD1 and ADGRF1” (Nature, 2022).
Ends that are not written are not given here.

Key:
Experiment in all cases: BRET assay using TRUPATH biosensors, Gi activation of ADGRF1
Format in all cases: cell-based
ADGRF1 [1] = target: T1, ADGRF1 (Homo sapiens, UniProt Q5T601, A683G); conditions: ADGRF1 A683^3.55bG
T1 construct: Flag (N); expressed in transfected cells; host or cells: HEK293F
Method: (§1) To study the synthetic stalk peptide-induced G protein activation of ADGRD1 and ADGRF1, a BRET assay using TRUPATH biosensors was conducted to measure the proximal interaction between RLuc8 fused to the Gα subunit and GFP2 fused to the Gγ subunit. The TRUPATH suite of biosensors was obtained from Addgene (Addgene kit no. 1000000163) as a gift from B. Roth, including GαsS-RLuc8, Gαi1-RLuc8, Gβ3 and Gγ9-GFP2 as previously described.
(§2) The wild-type or mutant ADGRD1 and ADGRF1 were transiently co-transfected with plasmids encoding Gα-RLuc8 (GαsS-RLuc8 for Gs activation assay; Gαi1-RLuc8 for Gi activation assay), Gβ3 and Gγ9-GFP2 at a ratio of 2:1:1:1 (receptor plasmid, 800 ng; G protein subunit plasmids, 400 ng for each) in 2 ml HEK293F cells at a density of 1.2 × 10^6 cells per ml. Cell cultivation and receptor surface expression measurement were performed as described above. The cells were plated into 96-well white plates (40,000 cells per well) in 60 μl of assay buffer and incubated at 37 °C for 30 min. Then 10 μl of freshly prepared 50 μM coelenterazine 400a (Nanolight Technologies) was added. […] The cells were stimulated with 30 μl of synthetic stalk peptide at different concentrations and the BRET signals were monitored continuously five times. The last measurements were used in data analysis. The BRET ratios were calculated as the ratio of the GFP2 emission to RLuc8 emission.

ADGRF1 [2] = target: T2, ADGRF1 (Homo sapiens, UniProt Q5T601, F641A); conditions: ADGRF1 F641^2.64bA
T2 construct: Flag (N); expressed in transfected cells; host or cells: HEK293F
Method: as §1, §2

ADGRF1 [3] = target: T3, ADGRF1 (Homo sapiens, UniProt Q5T601, F823A); conditions: ADGRF1 F823^7.42bA
T3 construct: Flag (N); expressed in transfected cells; host or cells: HEK293F
Method: as §1, §2

ADGRF1 [4] = target: T4, ADGRF1 (Homo sapiens, UniProt Q5T601, G831A); conditions: ADGRF1 G831^7.50bA, n = 3
T4 construct: Flag (N); expressed in transfected cells; host or cells: HEK293F
Method: as §1, §2

ADGRF1 [5] = target: T5, ADGRF1 (Homo sapiens, UniProt Q5T601, L593A); conditions: ADGRF1 L593^1.47bA
T5 construct: Flag (N); expressed in transfected cells; host or cells: HEK293F
Method: as §1, §2

ADGRF1 [6] = target: T6, ADGRF1 (Homo sapiens, UniProt Q5T601, L678A); conditions: ADGRF1 L678^3.50bA
T6 construct: Flag (N); expressed in transfected cells; host or cells: HEK293F
Method: as §1, §2

ADGRF1 [7] = target: T7, ADGRF1 (Homo sapiens, UniProt Q5T601, N827A); conditions: ADGRF1 N827^7.46bA
T7 construct: Flag (N); expressed in transfected cells; host or cells: HEK293F
Method: as §1, §2

ADGRF1 [8] = target: T8, ADGRF1 (Homo sapiens, UniProt Q5T601, R623A); conditions: ADGRF1 R623^2.46bA
T8 construct: Flag (N); expressed in transfected cells; host or cells: HEK293F
T8 sequence (Q5T601 20-910 R623A): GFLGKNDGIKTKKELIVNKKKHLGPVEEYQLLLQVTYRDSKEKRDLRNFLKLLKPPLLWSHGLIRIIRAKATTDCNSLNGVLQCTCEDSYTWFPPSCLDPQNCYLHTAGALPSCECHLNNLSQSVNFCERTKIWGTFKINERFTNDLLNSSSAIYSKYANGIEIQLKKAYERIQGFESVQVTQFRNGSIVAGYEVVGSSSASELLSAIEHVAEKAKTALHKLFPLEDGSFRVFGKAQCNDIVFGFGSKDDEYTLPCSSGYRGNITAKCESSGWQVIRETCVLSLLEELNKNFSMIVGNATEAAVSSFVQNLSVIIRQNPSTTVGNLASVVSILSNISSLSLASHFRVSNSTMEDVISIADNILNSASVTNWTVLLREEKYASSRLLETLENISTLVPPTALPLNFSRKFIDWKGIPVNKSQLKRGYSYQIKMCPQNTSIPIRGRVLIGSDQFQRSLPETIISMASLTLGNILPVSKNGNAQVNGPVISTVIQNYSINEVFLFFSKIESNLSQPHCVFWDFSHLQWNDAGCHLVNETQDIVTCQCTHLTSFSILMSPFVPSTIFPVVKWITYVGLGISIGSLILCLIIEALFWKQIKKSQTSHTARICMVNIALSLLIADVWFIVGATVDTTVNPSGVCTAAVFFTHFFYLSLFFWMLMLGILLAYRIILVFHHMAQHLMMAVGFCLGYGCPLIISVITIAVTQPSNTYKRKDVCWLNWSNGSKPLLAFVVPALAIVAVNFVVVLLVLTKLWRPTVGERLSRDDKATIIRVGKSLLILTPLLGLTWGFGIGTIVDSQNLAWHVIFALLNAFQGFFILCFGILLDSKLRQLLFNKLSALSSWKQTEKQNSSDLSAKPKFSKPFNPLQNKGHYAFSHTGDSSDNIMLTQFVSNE
Method: as §1, §2

ADGRF1 [9] = target: T9, ADGRF1 (Homo sapiens, UniProt Q5T601, T589A); conditions: ADGRF1 T589^1.40bA
T9 construct: Flag (N); expressed in transfected cells; host or cells: HEK293F
Method: as §1, §2

ADGRF1 [10] = target: T10, ADGRF1 (Homo sapiens, UniProt Q5T601, T810A); conditions: ADGRF1 T810^6.59bA
T10 construct: Flag (N); expressed in transfected cells; host or cells: HEK293F
Method: as §1, §2

ADGRF1 [11] = target: T11, ADGRF1 (Homo sapiens, UniProt Q5T601, V748A); conditions: ADGRF1 V748^5.40bA
T11 construct: Flag (N); expressed in transfected cells; host or cells: HEK293F
Method: as §1, §2

ADGRF1 [12] = target: T12, ADGRF1 (Homo sapiens, UniProt Q5T601, W734A); conditions: ADGRF1 W734^ECL2A
T12 construct: Flag (N); expressed in transfected cells; host or cells: HEK293F
Method: as §1, §2

ADGRF1 [13] = target: T13, ADGRF1 (Homo sapiens, UniProt Q5T601, W804A); conditions: ADGRF1 W804^6.53bA
T13 construct: Flag (N); expressed in transfected cells; host or cells: HEK293F
Method: as §1, §2

ADGRF1 [14] = target: T14, ADGRF1 (Homo sapiens, UniProt Q5T601, Y668A); conditions: ADGRF1 Y668^3.40bA
T14 construct: Flag (N); expressed in transfected cells; host or cells: HEK293F
Method: as §1, §2

[15] = n = 3, read-out: pEC50 (mean ± s.e.m.) (converted)

T11 sequence (Q5T601 20-910 V748A): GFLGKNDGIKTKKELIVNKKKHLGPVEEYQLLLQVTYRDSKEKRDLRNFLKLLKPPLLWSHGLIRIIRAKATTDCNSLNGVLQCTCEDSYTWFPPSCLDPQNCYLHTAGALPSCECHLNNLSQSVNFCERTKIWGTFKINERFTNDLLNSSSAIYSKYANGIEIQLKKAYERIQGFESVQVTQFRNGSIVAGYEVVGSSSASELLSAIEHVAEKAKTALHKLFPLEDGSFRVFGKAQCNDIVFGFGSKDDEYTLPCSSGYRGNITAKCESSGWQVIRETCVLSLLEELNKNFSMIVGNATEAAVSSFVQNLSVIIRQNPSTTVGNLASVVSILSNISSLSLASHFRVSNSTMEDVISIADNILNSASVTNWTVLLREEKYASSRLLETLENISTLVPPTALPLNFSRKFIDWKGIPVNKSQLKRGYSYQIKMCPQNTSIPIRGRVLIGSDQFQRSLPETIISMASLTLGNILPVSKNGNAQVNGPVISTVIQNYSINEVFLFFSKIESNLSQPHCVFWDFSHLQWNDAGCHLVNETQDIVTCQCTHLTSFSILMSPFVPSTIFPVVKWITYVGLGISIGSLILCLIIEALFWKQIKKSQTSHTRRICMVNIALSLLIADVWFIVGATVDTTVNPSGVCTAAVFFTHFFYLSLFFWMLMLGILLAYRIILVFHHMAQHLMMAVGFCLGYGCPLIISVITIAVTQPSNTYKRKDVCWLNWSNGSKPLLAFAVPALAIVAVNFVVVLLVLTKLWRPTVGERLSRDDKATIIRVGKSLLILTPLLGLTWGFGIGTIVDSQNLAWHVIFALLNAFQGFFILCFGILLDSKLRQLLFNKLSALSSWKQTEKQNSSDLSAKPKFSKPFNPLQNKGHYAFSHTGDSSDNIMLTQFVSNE
T12 sequence (Q5T601 20-910 W734A): as the sequence (Q5T601 20-910 V748A) above, with W715A, A729V counted along it
T3 sequence (Q5T601 20-910 F823A): as the sequence (Q5T601 20-910 V748A) above, with A729V, F804A counted along it
T10 sequence (Q5T601 20-910 T810A): as the sequence (Q5T601 20-910 V748A) above, with A729V, T791A counted along it
T6 sequence (Q5T601 20-910 L678A): as the sequence (Q5T601 20-910 V748A) above, with L659A, A729V counted along it
T1 sequence (Q5T601 20-910 A683G): as the sequence (Q5T601 20-910 V748A) above, with A664G, A729V counted along it
T5 sequence (Q5T601 20-910 L593A): as the sequence (Q5T601 20-910 V748A) above, with L574A, A729V counted along it
T4 sequence (Q5T601 20-910 G831A): as the sequence (Q5T601 20-910 V748A) above, with A729V, G812A counted along it
T13 sequence (Q5T601 20-910 W804A): as the sequence (Q5T601 20-910 V748A) above, with A729V, W785A counted along it
T9 sequence (Q5T601 20-910 T589A): as the sequence (Q5T601 20-910 V748A) above, with T570A, A729V counted along it
T14 sequence (Q5T601 20-910 Y668A): as the sequence (Q5T601 20-910 V748A) above, with Y649A, A729V counted along it
T7 sequence (Q5T601 20-910 N827A): as the sequence (Q5T601 20-910 V748A) above, with A729V, N808A counted along it
T2 sequence (Q5T601 20-910 F641A): as the sequence (Q5T601 20-910 V748A) above, with F622A, A729V counted along it

## TSFSILMSPFVP [pF1]
ADGRF1 [1]; n = 3
  Emax (mean ± s.e.m.): 111 ± 13 % of WT
ADGRF1 [1]; [15]
  EC50: 339 nM
ADGRF1 [2]; n = 3
  Emax (mean ± s.e.m.): 82 ± 15 % of WT
ADGRF1 [2]; [15]
  EC50: 204 nM
ADGRF1 [3]; n = 3
  Emax (mean ± s.e.m.): 90 ± 14 % of WT
ADGRF1 [3]; [15]
  EC50: 316 nM
ADGRF1 [4]
  EC50: 1040 nM
  Emax (mean ± s.e.m.): 97 ± 15 % of WT
ADGRF1 [5]; n = 3
  Emax (mean ± s.e.m.): 106 ± 11 % of WT
ADGRF1 [5]; [15]
  EC50: 562 nM
ADGRF1 [6]; n = 3
  Emax (mean ± s.e.m.): 58 ± 7 % of WT
ADGRF1 [6]; [15]
  EC50: 129 nM
ADGRF1 [7]; n = 3
  Emax (mean ± s.e.m.): 122 ± 13 % of WT
ADGRF1 [7]; [15]
  EC50: 389 nM
ADGRF1 [8]; n = 3
  Emax (mean ± s.e.m.): 120 ± 8 % of WT
ADGRF1 [8]; [15]
  EC50: 447 nM
ADGRF1 [9]; n = 3
  Emax (mean ± s.e.m.): 114 ± 13 % of WT
ADGRF1 [9]; [15]
  EC50: 87.1 nM
ADGRF1 [10]; n = 3
  Emax (mean ± s.e.m.): 81 ± 12 % of WT
ADGRF1 [10]; [15]
  EC50: 562 nM
ADGRF1 [11]; n = 3
  Emax (mean ± s.e.m.): 85 ± 17 % of WT
ADGRF1 [11]; [15]
  EC50: 56.2 nM
ADGRF1 [12]; n = 3
  Emax (mean ± s.e.m.): 60 ± 11 % of WT
ADGRF1 [12]; [15]
  EC50: 138 nM
ADGRF1 [13]; n = 4
  Emax (mean ± s.e.m.): 86 ± 19 % of WT
ADGRF1 [13]; n = 4, read-out: pEC50 (mean ± s.e.m.) (converted)
  EC50: 977 nM
ADGRF1 [14]; n = 3
  Emax (mean ± s.e.m.): 123 ± 17 % of WT
ADGRF1 [14]; [15]
  EC50: 355 nM
